Data taken from patent US20050233413A1, “Neuroprotective polypeptides and methods of use” (priority 2002, published 2005).
Like-named read-outs stand apart in the source and are kept apart here. Where a SMILES comes first, the peptide text is derived from it. Where no end group is shown, it is not given here. [ ]: non-standard residue; d: D form. pS = N[C@@H](COP(=O)(O)O)C(=O)O

Tests used:
[1] = system: F11 cells transfected with V642I-APP, NL-APP, M146L-PS1 or N141I-PS2 cDNA; assay type: cell-based, rat/mouse hybrid
Source text: (§1) F11 cells, the hybrid of a rat embryonic-day-13 primary cultured primary neuron and a mouse neuroblastoma cell, are one of the best models for primary cultured neurons as they carry representative characteristics of primary neurons, such as generation of action potentials without differentiation by NGF [22]. They have been used in various studies of is neuronal functions. Using these cells, the underlying mechanisms for cytotoxicity by V642I-APP have well been analyzed. Cytotoxicity by V642 mutants of APP has also been confirmed in multiple different systems. F11 cells were grown in Ham's F-12 (GibcoBRL, Gaithersburg, Md.) plus 18% fetal bovine serum (FBS; Hyclone, Logan, Utah) and antibiotics, as described previously. F11 cells (7×10^4 cell/well in a 6-well plate cultured in Ham's F-12 plus 18% FBS for 12-16 hr) were transfected with plasmids encoding FAD genes by lipofection [FAD cDNA 2 μg, LipofectAMINE 4 μl, PLUS reagent 8 μl (GibcoBRL)] in the absence of serum for 3 hr, and were incubated with Ham's F-12 plus 18% FBS for 2 hr. Then, culture media were changed to Ham's F-12 plus 10% FBS with or without HN peptides, and cells were cultured for an additional 67 hr. Seventy-two hr after transfection, cell mortality was measured by Trypan blue exclusion assay, performed as follows. Cells were suspended by pipetting gently, and 50 μl of 0.4% (finally 0.08%) Trypan blue solution (Sigma, St Louis, Mo.) was mixed with 200 μl of the cell suspension at room temperature. Stained cells were counted within 3 min after the mixture with Trypan blue solution.

[2] = system: Aβ and four FAD genes (V642I-APP, NL-APP, M146L-PS1, and N141I-PS2); assay type: cell-based; details: for Full protection (minimal concentration that exerted full cytoprotection): Table 5, marked *
Source text: as §1
(§2) The primary culture of mouse cortical neurons was performed in poly-L-lysine-coated 24-well plates or 96-well plates (Sumitomo Bakelite, Akita, Japan), in the absence of serum and the presence of N2 supplement, as described previously. The purity of neurons by this method was >98%. Prepared neurons (for neurons seeded in 96-well plates: 2.5×10^4 or 5×10^4 cells/well, 100 μl culture medium/well; for neurons seeded in 24-well plates: 1.25×10^5 cells/well, 250 μl culture medium/well) were preincubated with or without 10 μM (in case for the experiment with 10 μM HN) synthetic HN for 16 hr, and treated with 25 μM Aβ in the presence or absence of 10 μM HN for 72 hr, respectively. As primary neurons were vulnerable to transient dryness during medium exchange, we treated neurons with 25 μM Aβ as follows. First, a half volume (50 μl for neurons in 96-well plates; 125 μl for neurons in 24-well plates) of old medium was discarded. Then, the same volume (50 μl for neurons in 96-well plates; 125 μl for neurons in 24-well plates) of prewarned fresh medium containing 10 μM HN and 50 μM Aβ (Aβ was directly resolved) was added to the culture. The Aβ peptides used at 25 μM to induce neurotoxicity formed aggregation in the medium during the cell culture at 37° C. for 72 hr. as described. The WST-8 cell viability assay was performed, using Cell Counting Kit-8 (Wako Pure Chemical Industries, Osaka, Japan), as described previously.
(§3) Calcein assay was performed with Calcein-AM {3′,6′-di-(O-acetyl)-2′,7′-bis [N,N-bis(carboxymethyl)aminomethyl] fluorescein, tetraacetoxymethyl ester; Dojindo}, as described previously. These assays were simultaneously performed in the experiments with neurons seeded in 96-well plates, as follows. Seventy-two hours after Aβ treatment, cells were added with the mixture of 10 μl WST-8 solution and 1 μl of 600 μM Calcein-AM. After 2 hr incubation in a CO2 incubator at 37° C., WST-8 absorbance was measured as OD450. After exchanging the medium to PBS to lower the background, Calcein-specific fluorescence (ex=485 nm, em=535 nm) was observed by fluorescence microscopy or measured by a spectrofluorometer (Wallac1420 ARVOsx Multi Label Counter). […]

[3] = system: primary cultured neurons treated with 25 μM Aβ1-43; assay type: cell-based; details: for concentration of full neuroprotection against Aβ1-43: 25 μM Aβ1-43; for Calcein fluorescence, percentage of neurons without treatment: 72 hours, means±S.D.
Description: (§4) In one assay, transfection with V642I-APP causes cell death in F11 neuronal hybrid cells. In the other, treatment with Aβ peptides causes cell death in primary cultured cortical neurons.
as §2
Calcein assay was performed with Calcein-AM {3′,6′-di-(O-acetyl)-2′,7′-bis [N,N-bis(carboxymethyl)aminomethyl] fluorescein, tetraacetoxymethyl ester; Dojindo}, as described previously. These assays were simultaneously performed in the experiments with neurons seeded in 96-well plates, as follows. Seventy-two hours after Aβ treatment, cells were added with the mixture of 10 μl WST-8 solution and 1 μl of 600 μM Calcein-AM. After 2 hr incubation in a CO2 incubator at 37° C., WST-8 absorbance was measured as OD450. After exchanging the medium to PBS to lower the background, Calcein-specific fluorescence (ex=485 nm, em=535 nm) was observed by fluorescence microscopy or measured by a spectrofluorometer (Wallac1420 ARVOsx Multi Label Counter). Most cell viability data using Calcein assay and WST-8 assay were obtained from neurons seeded at 5×10^4 cells/well in 96-well plates (high-density neurons) and confirmed by both assays with the cells seeded at 2.5×10^4 cells/well (low-density neurons).
Some experiments for Calcein assay were performed with neurons seeded in 24-well plates. […] In most experiments using primary neurons, four independent experiments were performed and the means? S. D. of the results were discussed.

[4] = system: V642I-APP, NL-APP, M146L-PS1, N141I-PS2 holoprotein expression in F11 cells; experiment: Immunoblot analysis of transfected FAD gene expression; assay type: cell-based, rat/mouse hybrid; details: F11 cells treated with peptide
Description: Immunoblot analysis was performed as described. For the analysis of transfected FAD gene expression, lysates (20 μg/lane) from cells transfected with each FAD gene (V642I-APP, NL-APP, M146L-PS1, N141I-PS2) were submitted to SDS-PAGE and were electrically blotted to a PVDF sheet. After blocking, the sheet was soaked with antibodies [for APP mutants: 5 μg/ml 22C11 (CHEMICON, Temecula, Calif.); for PS1 mutant: 1/2000 of anti-PS1 N-terminus antibody (CHEMICON) for PS2 mutant: 1/500 of anti-PS2 antibody (Cell Signaling Technology, Beverly, Mass.)] and then with HRP-labeled secondary antibodies. The antigenic bands were visualized by ECL (Amersham Pharmacia Biotech, Uppsala, Sweden).

[5] = system: F11 cells transfected with V642I-APP cDNA; experiment: F11 cell death by V642I-APP transfection (Trypan blue exclusion); assay type: cell-based; details: 72 hr after transfection
Source text: as §4, §1

Aβ and V642I-APP = assay type: cell-based; details: Table 5, marked **
Source text: as §1, §2, §3

[6] = 25 μM Aβ1-43 + 10 pM peptide, Aβ alone 8.9 ± 0.8
[7] = V642I-APP + 10 pM peptide, means±S.D., V642I-APP alone 52.9 ± 1.1

Compound: MAPRGF(D-Ser)CLLLLT(D-Ser)EIDLPVKRRA (MAPRGF[dS]CLLLLT[dS]EIDLPVKRRA) [D-Ser7/14 HN]
- cytoprotective action against FAD genes (in words) ([1]; V642I-APP): virtually identical to those of (D-Ser^14)HN
- Full protection (minimal concentration that exerted full cytoprotection) [2]: ˜10 nM

Compound: MAPRGFSCLLLLT(D-S)EIDLPVKRRA [D-Ser14 HN]
- concentration of full neuroprotection against Aβ1-43 [3]: 1 to 10 nM
- potency of neuroprotection against Aβ relative to HN ([3]; times as high as / higher than authentic HN): 100-1000 times
- concentration of full suppression of cell death by FAD mutants ([1]; V642I-APP): 10 nM
- cytoprotective action against FAD genes (in words) ([1]; V642I-APP): virtually identical to that of HNG
- CMV-promoter-driven expression of V642I-APP, NL-APP, M146L-PS1, or N141I-PS2 holoprotein [4]: did not suppress
- Full protection (minimal concentration that exerted full cytoprotection) [2]: ˜10 nM

Compound: MAPRGF(p-S)CLLLLT(p-S)EIDLPVKRRA (MAPRGF[pS]CLLLLT[pS]EIDLPVKRRA) [P-S7/14 HN]
- Calcein fluorescence, percentage of neurons without treatment [3, 6]: 9.3 ± 0.4%
- Calcein fluorescence, percentage of neurons without treatment ([3]; 25 μM Aβ1-43 + 100 pM peptide): 8.8 ± 0.3%
- Calcein fluorescence, percentage of neurons without treatment ([3]; 25 μM Aβ1-43 + 1 nM peptide): 8.8 ± 0.2%
- Calcein fluorescence, percentage of neurons without treatment ([3]; 25 μM Aβ1-43 + 10 nM peptide): 8.7 ± 0.3%
- Calcein fluorescence, percentage of neurons without treatment ([3]; 25 μM Aβ1-43 + 100 nM peptide): 8.6 ± 0.2%
- Calcein fluorescence, percentage of neurons without treatment ([3]; 25 μM Aβ1-43 + 1 μM peptide): 84.0 ± 5.8 %
- Calcein fluorescence, percentage of neurons without treatment ([3]; 25 μM Aβ1-43 + 10 μM peptide): 103.3 ± 0.8 %
- % dead cells of total cells [5, 7]: 54.8 ± 0.5%
- % dead cells of total cells ([5]; V642I-APP + 100 pM peptide): 54.1 ± 1.5%
- % dead cells of total cells ([5]; V642I-APP + 1 nM peptide): 52.9 ± 1.6%
- % dead cells of total cells ([5]; V642I-APP + 10 nM peptide): 53.8 ± 3.1%
- % dead cells of total cells ([5]; V642I-APP + 100 nM peptide): 38.2 ± 1.9 %
- % dead cells of total cells ([5]; V642I-APP + 1 μM peptide): 22.7 ± 5.2 %
- % dead cells of total cells ([5]; V642I-APP + 10 μM peptide): 11.8 ± 1.2 %
- Full protection (minimal concentration that exerted full cytoprotection) (Aβ and V642I-APP): ˜10 μM

Compound: EFLIVIKSMAPAGASCLLLLTGEIDLPVKRRA [EF-AGA-HNG]
- IC50 [3]: ~0.001 nM
- concentration of full neuroprotection against Aβ1-43 [3]: 0.01 nM
- concentration of full cytoprotection against FAD genes ([1]; each of V642I-APP): 10 pM
- CMV-promoter-driven expression of V642I-APP, NL-APP, M146L-PS1, or N141I-PS2 holoprotein [4]: little or only marginal alteration
- Full protection (minimal concentration that exerted full cytoprotection) [2]: ˜10 pM

Compound: MAPRGFSCLLLLT(p-S)EIDLPVKRRA (MAPRGFSCLLLLT[pS]EIDLPVKRRA) [P-S14 HN, p-S is phosphorylated L-Ser]
- Calcein fluorescence, percentage of neurons without treatment [3, 6]: 8.6 ± 0.3%
- Calcein fluorescence, percentage of neurons without treatment ([3]; 25 μM Aβ1-43 + 100 pM peptide): 8.6 ± 0.4%
- Calcein fluorescence, percentage of neurons without treatment ([3]; 25 μM Aβ1-43 + 1 nM peptide): 8.9 ± 0.1%
- Calcein fluorescence, percentage of neurons without treatment ([3]; 25 μM Aβ1-43 + 10 nM peptide): 8.6 ± 0.3%
- Calcein fluorescence, percentage of neurons without treatment ([3]; 25 μM Aβ1-43 + 100 nM peptide): 8.6 ± 0.1%
- Calcein fluorescence, percentage of neurons without treatment ([3]; 25 μM Aβ1-43 + 1 μM peptide): 85.8 ± 4.1 %
- Calcein fluorescence, percentage of neurons without treatment ([3]; 25 μM Aβ1-43 + 10 μM peptide): 104.1 ± 1.7 %
- % dead cells of total cells [5, 7]: 56.5 ± 4.1%
- % dead cells of total cells ([5]; V642I-APP + 100 pM peptide): 56.3 ± 2.7%
- % dead cells of total cells ([5]; V642I-APP + 1 nM peptide): 54.3 ± 1.2%
- % dead cells of total cells ([5]; V642I-APP + 10 nM peptide): 53.4 ± 2.0%
- % dead cells of total cells ([5]; V642I-APP + 100 nM peptide): 41.8 ± 1.8 %
- Full protection (minimal concentration that exerted full cytoprotection) (Aβ and V642I-APP): ˜10 μM

Compound: CC[C@H](C)[C@H](NC(=O)[C@H](CCC(=O)O)NC(=O)[C@@H](CO)NC(=O)[C@@H](NC(=O)[C@H](CC(C)C)NC(=O)[C@H](CC(C)C)NC(=O)[C@H](CC(C)C)NC(=O)[C@H](CC(C)C)NC(=O)[C@H](CS)NC(=O)[C@H](CO)NC(=O)[C@H](C)NC(=O)CNC(=O)[C@H](C)NC(=O)[C@@H]1CCCN1C(=O)[C@H](C)NC(=O)[C@@H](N)CCSC)[C@@H](C)O)C(=O)N[C@@H](CC(=O)O)C(=O)N[C@@H](CC(C)C)C(=O)N1CCC[C@H]1C(=O)N[C@H](C(=O)N[C@@H](CCCCN)C(=O)N[C@@H](CCCNC(=N)N)C(=O)N[C@@H](CCCNC(=N)N)C(=O)N[C@@H](C)C(=O)O)C(C)C [AGA-(D-Ser14)HN, MAPAGASCLLLLT(D-Ser)EIDLPVKRRA] (H-MAPAGASCLLLLT[dS]EIDLPVKRRA-OH; N-terminus and C-terminus assumed)
- CMV-promoter-driven expression of V642I-APP, NL-APP, M146L-PS1, or N141I-PS2 holoprotein [4]: not affected
- concentration of full cytoprotection [2]: 100 pM
- Full protection (minimal concentration that exerted full cytoprotection) [2]: 100 to 300 pM

Compound: CC[C@H](C)[C@H](NC(=O)[C@H](CCC(=O)O)NC(=O)[C@@H](CO)NC(=O)[C@@H](NC(=O)[C@H](CC(C)C)NC(=O)[C@H](CC(C)C)NC(=O)[C@H](CC(C)C)NC(=O)[C@H](CC(C)C)NC(=O)[C@H](CS)NC(=O)[C@H](CO)NC(=O)[C@H](C)NC(=O)CNC(=O)[C@H](C)NC(=O)[C@@H]1CCCN1)[C@@H](C)O)C(=O)N[C@@H](CC(=O)O)C(=O)N[C@@H](CC(C)C)C(=O)N1CCC[C@H]1C(=O)O [AGA-(D-Ser14)HN17, PAGASCLLLLT(D-Ser)EIDLP] (H-PAGASCLLLLT[dS]EIDLP-OH; N-terminus and C-terminus assumed)
- concentration of full cytoprotection against FAD genes ([1]; each of V642I-APP): 100 pM
- IC50 ([1]; each of V642I-APP, read-out: IC50 of suppression of neuronal cell death by FAD genes): ~0.01 nM
- CMV-promoter-driven expression of V642I-APP, NL-APP, M146L-PS1, or N141I-PS2 holoprotein [4]: did not suppress
- IC50 [2]: 0.01 to 0.1 nM
- action potency compared with another peptide (in words) [2]: as potent as AGAD-Ser^14)HN
- Full protection (minimal concentration that exerted full cytoprotection) [2]: ˜100 pM
